ChEMBL document CHEMBL5537158, “Polymyxins with Potent Antibacterial Activity against Colistin-Resistant Pathogens: Fine-Tuning Hydrophobicity with Unnatural Amino Acids” (J Med Chem, 2024)
In brackets after ≈: the same amount, converted by molar mass. Positions of bridges follow the written chain, without caps; N, C: chain ends. Non-standard residues stand in square brackets, D forms with d. Residues, ends and D or L forms follow the SMILES beside them. *: point of attachment. Phe(3,4,5-F3) = N[C@@H](Cc1cc(F)c(F)c(F)c1)C(=O)O; Phe(4-CF3) = N[C@@H](Cc1ccc(C(F)(F)F)cc1)C(=O)O; Phe(4-Br) = N[C@@H](Cc1ccc(Br)cc1)C(=O)O; Phe(4-Cl) = N[C@@H](Cc1ccc(Cl)cc1)C(=O)O; Phe(3-F) = N[C@@H](Cc1cccc(F)c1)C(=O)O; d(hhPhe) = N[C@H](CCCc1ccccc1)C(=O)O; d(hPhe) = N[C@H](CCc1ccccc1)C(=O)O; Octanoyl = CCCCCCCC(=O)*; Dab = NCC[C@H](N)C(=O)O

How the values were obtained:
[1] = tested on: Escherichia coli; assay: Antibacterial activity against Escherichia coli ATCC 25922 assessed as bacterial growth inhibition incubated for 20 hrs by broth microdilution method; type: functional
[2] = tested on: Acinetobacter baumannii; assay: Antimicrobial activity against Acinetobacter baumannii ATCC 19606 assessed as bacterial growth inhibition incubated for 20 hrs by broth microdilution method; type: functional
[3] = tested on: Acinetobacter baumannii; assay: Antimicrobial activity against colistin resistant Acinetobacter baumannii ATCC 3658/17 assessed as bacterial growth inhibition incubated for 20 hrs by broth microdilution method; type: functional
[4] = Hemolytic activity in human RBC at 400 ug/ml after 1 hr; type: toxicity, cell-based, Erythrocyte; conditions: red blood cells (erythrocytes), at 400 µg/mL, read-out: Activity
[5] = tested on: Pseudomonas aeruginosa; assay: Antimicrobial activity against Pseudomonas aeruginosa PAO1 assessed as bacterial growth inhibition incubated for 20 hrs by broth microdilution method; type: functional
[6] = tested on: Escherichia coli; assay: Antimicrobial activity against […] Escherichia coli harboring mcr-1 assessed as bacterial growth inhibition incubated for 20 hrs by broth microdilution method; type: functional
[7] = tested on: Pseudomonas aeruginosa; assay: Antimicrobial activity against colistin resistant Pseudomonas aeruginosa 7197/19 assessed as bacterial growth inhibition incubated for 20 hrs by broth microdilution method; type: functional

Structure (SMILES) | MIC [1] | MIC [2] | MIC [3] | hemolysis at 1 h, 400 ug/ml [4] | MIC [5] | MIC [6] | MIC [7]
CC(=O)N[C@H](Cc1ccc(F)cc1)C(=O)N[C@@H](CCN)C(=O)N[C@H](C(=O)N[C@@H](CCN)C(=O)N[C@H]1CCNC(=O)[C@H]([C@@H](C)O)NC(=O)[C@H](CCN)NC(=O)[C@H](CCN)NC(=O)[C@H](CC(C)C)NC(=O)[C@@H](Cc2ccccc2)NC(=O)[C@@H](CCN)NC1=O)[C@H](C)O | 0.25 µg/mL (≈ 0.197 µM) | 2 µg/mL (≈ 1.57 µM) | 16 µg/mL (≈ 12.6 µM) | < 10% |  |  | 
CC(=O)N[C@H](Cc1cccc(F)c1)C(=O)N[C@@H](CCN)C(=O)N[C@H](C(=O)N[C@@H](CCN)C(=O)N[C@H]1CCNC(=O)[C@H]([C@@H](C)O)NC(=O)[C@H](CCN)NC(=O)[C@H](CCN)NC(=O)[C@H](CC(C)C)NC(=O)[C@@H](Cc2ccccc2)NC(=O)[C@@H](CCN)NC1=O)[C@H](C)O | 0.25 µg/mL (≈ 0.197 µM) | 1 µg/mL (≈ 0.787 µM) | 16 µg/mL (≈ 12.6 µM) | < 10% | 0.25 µg/mL (≈ 0.197 µM) |  | 
CCCCCCCC(=O)N[C@@H](CCN)C(=O)N[C@H](C(=O)N[C@@H](CCN)C(=O)N[C@H]1CCNC(=O)[C@H]([C@@H](C)O)NC(=O)[C@H](CCN)NC(=O)[C@H](CCN)NC(=O)[C@H](CC(C)C)NC(=O)[C@@H](CCc2ccccc2)NC(=O)[C@H](CCN)NC1=O)[C@@H](C)O (Octanoyl-[Dab]T[Dab][Dab][Dab][d(hPhe)]L[Dab][Dab]T; lactam 4-C) | 0.25 µg/mL (≈ 0.208 µM) |  | 4 µg/mL (≈ 3.32 µM) |  | 0.25 µg/mL (≈ 0.208 µM) |  | 
CCCCCCCC(=O)N[C@@H](CCN)C(=O)N[C@H](C(=O)N[C@@H](CCN)C(=O)N[C@H]1CCNC(=O)[C@H]([C@@H](C)O)NC(=O)[C@H](CCN)NC(=O)[C@H](CCN)NC(=O)[C@H](Cc2ccccc2)NC(=O)[C@@H](CCCc2ccccc2)NC(=O)[C@H](CCN)NC1=O)[C@@H](C)O (Octanoyl-[Dab]T[Dab][Dab][Dab][d(hhPhe)]F[Dab][Dab]T; lactam 4-C) | 0.25 µg/mL (≈ 0.2 µM) |  | 1 µg/mL (≈ 0.799 µM) |  |  | 2 µg/mL (≈ 1.6 µM) | 0.5 µg/mL (≈ 0.4 µM)
CCCCCCCC(=O)N[C@@H](CCN)C(=O)N[C@H](C(=O)N[C@@H](CCN)C(=O)N[C@H]1CCNC(=O)[C@H]([C@@H](C)O)NC(=O)[C@H](CCN)NC(=O)[C@H](CCN)NC(=O)[C@H](CC(C)C)NC(=O)[C@@H](CCCc2ccccc2)NC(=O)[C@H](CCN)NC1=O)[C@@H](C)O (Octanoyl-[Dab]T[Dab][Dab][Dab][d(hhPhe)]L[Dab][Dab]T; lactam 4-C) | < 0.125 µg/mL | < 0.125 µg/mL |  |  |  |  | 0.5 µg/mL (≈ 0.411 µM)
CCCCCCCC(=O)N[C@@H](CCN)C(=O)N[C@H](C(=O)N[C@@H](CCN)C(=O)N[C@H]1CCNC(=O)[C@H]([C@@H](C)O)NC(=O)[C@H](CCN)NC(=O)[C@H](CCN)NC(=O)[C@H](Cc2cc(F)c(F)c(F)c2)NC(=O)[C@@H](CC(C)C)NC(=O)[C@H](CCN)NC1=O)[C@@H](C)O (Octanoyl-[Dab]T[Dab][Dab][Dab][dL][Phe(3,4,5-F3)][Dab][Dab]T; lactam 4-C) |  | < 0.125 µg/mL | 2 µg/mL (≈ 1.61 µM) |  | 0.25 µg/mL (≈ 0.201 µM) |  | 
CCCCCCCC(=O)N[C@@H](CCN)C(=O)N[C@H](C(=O)N[C@@H](CCN)C(=O)N[C@H]1CCNC(=O)[C@H]([C@@H](C)O)NC(=O)[C@H](CCN)NC(=O)[C@H](CCN)NC(=O)[C@H](Cc2cccc(F)c2)NC(=O)[C@@H](CC(C)C)NC(=O)[C@H](CCN)NC1=O)[C@@H](C)O (Octanoyl-[Dab]T[Dab][Dab][Dab][dL][Phe(3-F)][Dab][Dab]T; lactam 4-C) | 0.25 µg/mL (≈ 0.207 µM) | 0.25 µg/mL (≈ 0.207 µM) |  |  |  | 4 µg/mL (≈ 3.31 µM) | 1 µg/mL (≈ 0.828 µM)
CCCCCCCC(=O)N[C@@H](CCN)C(=O)N[C@H](C(=O)N[C@@H](CCN)C(=O)N[C@H]1CCNC(=O)[C@H]([C@@H](C)O)NC(=O)[C@H](CCN)NC(=O)[C@H](CCN)NC(=O)[C@H](Cc2ccc(Br)cc2)NC(=O)[C@@H](CC(C)C)NC(=O)[C@H](CCN)NC1=O)[C@@H](C)O (Octanoyl-[Dab]T[Dab][Dab][Dab][dL][Phe(4-Br)][Dab][Dab]T; lactam 4-C) |  | 0.25 µg/mL (≈ 0.197 µM) | 1 µg/mL (≈ 0.788 µM) |  | 0.25 µg/mL (≈ 0.197 µM) |  | 
CCCCCCCC(=O)N[C@@H](CCN)C(=O)N[C@H](C(=O)N[C@@H](CCN)C(=O)N[C@H]1CCNC(=O)[C@H]([C@@H](C)O)NC(=O)[C@H](CCN)NC(=O)[C@H](CCN)NC(=O)[C@H](Cc2ccc(C(F)(F)F)cc2)NC(=O)[C@@H](CC(C)C)NC(=O)[C@H](CCN)NC1=O)[C@@H](C)O (Octanoyl-[Dab]T[Dab][Dab][Dab][dL][Phe(4-CF3)][Dab][Dab]T; lactam 4-C) |  | < 0.125 µg/mL | 1 µg/mL (≈ 0.795 µM) |  | 0.25 µg/mL (≈ 0.199 µM) |  | 
CCCCCCCC(=O)N[C@@H](CCN)C(=O)N[C@H](C(=O)N[C@@H](CCN)C(=O)N[C@H]1CCNC(=O)[C@H]([C@@H](C)O)NC(=O)[C@H](CCN)NC(=O)[C@H](CCN)NC(=O)[C@H](Cc2ccc(Cl)cc2)NC(=O)[C@@H](CC(C)C)NC(=O)[C@H](CCN)NC1=O)[C@@H](C)O (Octanoyl-[Dab]T[Dab][Dab][Dab][dL][Phe(4-Cl)][Dab][Dab]T; lactam 4-C) |  | 0.125 µg/mL (≈ 0.102 µM) | 1 µg/mL (≈ 0.817 µM) |  | 0.25 µg/mL (≈ 0.204 µM) |  | 
